Measurements published in ChEMBL document CHEMBL1201862, “PubChem BioAssay data set” (2004).
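Dose response: 5 concentrations. Exposure: 48 h. Format: 96-well plates. Endpoint: linear interpolation; highest concentration if not reached. Here, GI50 denotes the concentration required for 50% inhibition of growth.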 Activity calls are given as the source filed them. Rule as the data show it: active = GI50 up to about 1.1 µM and inactive = higher.

Assays:
Assay in all cases: DTP human tumour cell line panel, 48 h
[1] = system: A549
[2] = system: BT-549
[3] = system: HCT-116
[4] = system: HCT-15
[5] = system: Hs-578T
[6] = system: IGROV-1
[7] = system: K562
[8] = system: KM12
[9] = system: MCF7
[10] = system: MDA-N
[11] = system: NCI-H226
[12] = system: OVCAR-4
[13] = system: SF-295
[14] = system: SK-MEL-28
[15] = system: SK-MEL-5
[16] = system: SNB-19
[17] = system: SW-620
[18] = system: UO-31
[19] = system: MOLT-4

Compound | GI50 [1] | GI50 [2] | GI50 [3] | GI50 [4] [µM] | GI50 [5] | GI50 [6] | GI50 [7] | GI50 [8] | GI50 [9] | GI50 [10] | GI50 [11] | GI50 [12] | GI50 [13] | GI50 [14] | GI50 [15] | GI50 [16] | GI50 [17] | GI50 [18] | GI50 [19]
c1cc(NNc2cccc(-c3nnn[nH]3)c2)cc(-c2nnn[nH]2)c1 | > 100 µM (inactive) | > 100 µM (inactive) | > 100 µM (inactive) | > 100 | > 100 µM (inactive) | > 100 µM (inactive) | > 100 µM (inactive) | > 100 µM (inactive) | > 100 µM (inactive) | > 100 µM (inactive) | > 100 µM (inactive) | > 100 µM (inactive) | > 100 µM (inactive) | > 100 µM (inactive) | > 100 µM (inactive) | > 100 µM (inactive) | > 100 µM (inactive) | > 100 µM (inactive) | 
COc1cc2c(cc1OC)C13CCN4CC5CCOC6CC(=O)N2C1C6C5CC43 (configuration not stated) | > 100 µM (inactive) | > 100 µM (inactive) | > 100 µM (inactive) | > 100 | > 100 µM (inactive) | > 100 µM (inactive) |  | > 100 µM (inactive) | > 100 µM (inactive) | > 100 µM (inactive) | > 100 µM (inactive) | > 100 µM (inactive) | > 100 µM (inactive) | > 100 µM (inactive) | > 100 µM (inactive) | > 100 µM (inactive) | > 100 µM (inactive) | > 100 µM (inactive) | 1.81 µM (inactive)
Cc1cc(C)nc(NS(=O)(=O)c2ccc(NC(=O)c3cccc4c(NNc5ccc(S(=O)(=O)N=C(N)N)cc5)c5ccccc5nc34)cc2)n1 | > 50 µM (inactive) | > 50 µM (inactive) | > 50 µM (inactive) | > 50 | > 50 µM (inactive) | > 50 µM (inactive) | > 50 µM (inactive) | > 50 µM (inactive) | > 50 µM (inactive) | > 50 µM (inactive) | > 50 µM (inactive) | > 50 µM (inactive) | > 50 µM (inactive) |  | > 50 µM (inactive) | > 50 µM (inactive) | > 50 µM (inactive) | 48.1 µM (inactive) | > 50 µM (inactive)
CNC(=S)c1nnsc1N | > 100 µM (inactive) | > 100 µM (inactive) | 66.4 µM (inactive) | > 100 | > 100 µM (inactive) | 2.99 µM (inactive) | 21.7 µM (inactive) | 11.6 µM (inactive) | 0.918 µM (active) | > 100 µM (inactive) | > 100 µM (inactive) | > 100 µM (inactive) | > 100 µM (inactive) | > 100 µM (inactive) | 14 µM (inactive) |  | > 100 µM (inactive) | > 100 µM (inactive) | > 100 µM (inactive)
c1ccc(C2=NOC(c3ccccc3)N2C23CC4CC(CC(C4)C2)C3)cc1 (configuration not stated) | > 10 µM (inactive) | > 10 µM (inactive) | > 10 µM (inactive) | > 10 | > 10 µM (inactive) | > 10 µM (inactive) | > 10 µM (inactive) | > 10 µM (inactive) | 5.82 µM (inactive) | > 10 µM (inactive) | > 10 µM (inactive) | > 10 µM (inactive) | > 10 µM (inactive) | > 10 µM (inactive) | > 10 µM (inactive) | > 10 µM (inactive) | > 10 µM (inactive) |  | 9.53 µM (inactive)
CCOC(=O)C1(C(=O)OCC)C=C(c2ccccc2)N(C2OC(COC(C)=O)C(OC(C)=O)C(OC(C)=O)C2OC(C)=O)C1=S (configuration not stated) | 59.2 µM (inactive) | 72.3 µM (inactive) | > 100 µM (inactive) | > 100 | 68.7 µM (inactive) | > 100 µM (inactive) |  | 45.6 µM (inactive) | 44.7 µM (inactive) | > 100 µM (inactive) | > 100 µM (inactive) | 51.6 µM (inactive) | > 100 µM (inactive) | > 100 µM (inactive) | > 100 µM (inactive) | > 100 µM (inactive) | > 100 µM (inactive) | 61.5 µM (inactive) | 42.4 µM (inactive)
Nc1nc(Cl)cc(NCC2CC(O)(CO)C2)n1 (configuration not stated) | > 100 µM (inactive) | > 100 µM (inactive) | > 100 µM (inactive) | > 100 | > 100 µM (inactive) | > 100 µM (inactive) | > 100 µM (inactive) | > 100 µM (inactive) | > 100 µM (inactive) | > 100 µM (inactive) | > 100 µM (inactive) | > 100 µM (inactive) | > 100 µM (inactive) | > 100 µM (inactive) | > 100 µM (inactive) |  | > 100 µM (inactive) | > 100 µM (inactive) | > 100 µM (inactive)
C[C@]12CC[C@@H]3c4cc(Br)c(O)c(Br)c4CC[C@H]3[C@@H]1CC(Br)C2=O (some centres not stated) | 17.4 µM (inactive) | 5 µM (inactive) | 3.66 µM (inactive) | 2.65 | 5.86 µM (inactive) | 9.23 µM (inactive) | 2.29 µM (inactive) | 3.57 µM (inactive) | 5.61 µM (inactive) | 5.79 µM (inactive) | 6.5 µM (inactive) | 5.97 µM (inactive) | 16.6 µM (inactive) | 7.28 µM (inactive) |  |  | 3.36 µM (inactive) | 1.23 µM (inactive) | 2.53 µM (inactive)
CC(=O)N(CCc1ccccc1)C(C#N)c1ccccc1 (configuration not stated) | > 100 µM (inactive) | > 100 µM (inactive) | > 100 µM (inactive) | > 100 | > 100 µM (inactive) | > 100 µM (inactive) | > 100 µM (inactive) | > 100 µM (inactive) | > 100 µM (inactive) | > 100 µM (inactive) | > 100 µM (inactive) | > 100 µM (inactive) | > 100 µM (inactive) |  | > 100 µM (inactive) | > 100 µM (inactive) | > 100 µM (inactive) | > 100 µM (inactive) | > 100 µM (inactive)
O=c1[nH]ncc2[nH]c3c(c12)CCCc1ccccc1-3 | 33.3 µM (inactive) | 32.9 µM (inactive) | 27.4 µM (inactive) | 28.5 | 5.53 µM (inactive) | 55.2 µM (inactive) | 12.9 µM (inactive) | 37.4 µM (inactive) | 29.4 µM (inactive) | 29.6 µM (inactive) | 38.7 µM (inactive) | 44.5 µM (inactive) | 32.5 µM (inactive) |  | 22.4 µM (inactive) | 71.6 µM (inactive) | 43.2 µM (inactive) | 43.4 µM (inactive) | 17.5 µM (inactive)
C=CCN1C[C@@H](C)N([C@@H](c2ccccc2)c2ccc(C(=O)N(CC)CC)cc2)C[C@@H]1C | > 100 µM (inactive) | > 100 µM (inactive) | > 100 µM (inactive) | > 100 | > 100 µM (inactive) | > 100 µM (inactive) |  | > 100 µM (inactive) | > 100 µM (inactive) | > 100 µM (inactive) | 81.7 µM (inactive) | > 100 µM (inactive) | > 100 µM (inactive) | > 100 µM (inactive) | > 100 µM (inactive) | > 100 µM (inactive) | > 100 µM (inactive) | > 100 µM (inactive) | 33.3 µM (inactive)
Cc1nn(C(=O)c2ccc(Cl)cc2)c2c1C(c1ccc(Cl)cc1)SC(=N)N2 (configuration not stated) | > 10 µM (inactive) | > 10 µM (inactive) | > 10 µM (inactive) | > 10 | > 10 µM (inactive) | > 10 µM (inactive) | > 10 µM (inactive) | > 10 µM (inactive) | > 10 µM (inactive) | > 10 µM (inactive) | > 10 µM (inactive) | > 10 µM (inactive) | > 10 µM (inactive) | > 10 µM (inactive) | > 10 µM (inactive) | > 10 µM (inactive) | > 10 µM (inactive) |  | > 10 µM (inactive)
O=C(c1cc(Cl)cc(Cl)c1)N(Cc1cccnc1)C(=S)N(Cc1cccnc1)C(=O)c1cc(Cl)cc(Cl)c1 | > 100 µM (inactive) | 29.2 µM (inactive) | 31.1 µM (inactive) | 25.2 | 60.8 µM (inactive) |  | 24.4 µM (inactive) | 24.5 µM (inactive) | 5.69 µM (inactive) | 31.3 µM (inactive) | 52.1 µM (inactive) | 27.3 µM (inactive) | 55.5 µM (inactive) | 97.3 µM (inactive) | 23.3 µM (inactive) | 52.6 µM (inactive) | 27.9 µM (inactive) | 24.8 µM (inactive) | 38.9 µM (inactive)
Cc1nc(Cl)c(Cl)c(Cl)n1 | 1.49 µM (inactive) | 0.199 µM (active) | 0.118 µM (active) | 0.558 | 0.48 µM (active) | 0.173 µM (active) | < 0.0113 µM (active) | 0.405 µM (active) | 0.575 µM (active) | 1.6 µM (inactive) | 2.59 µM (inactive) | 0.0331 µM (active) | 1.86 µM (inactive) | 0.311 µM (active) | 0.705 µM (active) | 1.39 µM (inactive) | 0.0471 µM (active) |  | < 0.0142 µM (active)
CC1=C(C(=O)NNC(=O)C[N+](C)(C)C)CC(C(=O)NNC(=O)C[N+](C)(C)C)=C(C)N1 | > 100 µM (inactive) | > 100 µM (inactive) | > 100 µM (inactive) | > 100 | > 100 µM (inactive) | > 100 µM (inactive) | > 100 µM (inactive) | > 100 µM (inactive) | > 100 µM (inactive) | > 100 µM (inactive) | > 100 µM (inactive) | > 100 µM (inactive) | > 100 µM (inactive) |  | > 100 µM (inactive) | > 100 µM (inactive) | > 100 µM (inactive) | 68.4 µM (inactive) | > 100 µM (inactive)
CC(=O)c1cc2c(s1)C(=O)c1scc(C(C)=O)c1C2=O | 1.41 µM (inactive) | 1.12 µM (active) | 0.293 µM (active) | 0.308 | 0.279 µM (active) | 0.514 µM (active) | 0.272 µM (active) | 1.39 µM (inactive) | 0.163 µM (active) | 0.198 µM (active) | 1.69 µM (inactive) | 0.197 µM (active) | 0.883 µM (active) | 0.673 µM (active) | 0.327 µM (active) | 1.15 µM (inactive) | 0.394 µM (active) | 0.455 µM (active) | 
